Experiments:
Type in all cases: cell-based, human
[1] = test system: swim-up selected spermatozoa; experiment: Forward motility of H2O2 treated swim-up selected spermatozoa; conditions: for forward motility: n=12
Procedure: It is well known that reactive oxygen species (ROS), which may be generated during sperm preparation for IVF, exert detrimental effects on sperm fertilization potential. In particular, among ROS, H2O2 strongly reduces motility when added to sperm samples at micromolar concentrations. Therefore, the effect of LY294002 on H2O2 treated sperm cells was evaluated. The compound was added to swim-up selected spermatozoa samples from oligoasthenospermic patients in amounts of 10 µM either alone or in combination with 200 µM of H2O2. […]

[2] = test system: swim-up selected spermatozoa; experiment: Forward motility of LiCl treated swim-up selected spermatozoa; conditions: 10 µM, two hours, with or without different concentrations of LiCl; Fig. 7
From the text: LiCl is also a known inhibitor of sperm cell motility.

[3] = test system: spermatozoa; experiment: Motility of spermatozoa in seminal liquid, evaluated blindly under the microscope (WHO manual)
Procedure: (§1) In the experiments the following examples are based on, standard methods of in vitro fertilization have been used. With regard to the details of these methods, reference is made to the "WHO manual" (WHO laboratory manual for the examination of human semen and sperm-cervical mucus interactions, 4th edtition, Cambridge University Press 1999). In particular, the direct swim-up method can be taken from pp. 104 to 106 of this manual.
Spermatozoa were prepared according to the standard procedures of IVF. Briefly, spermatozoa were prepared from 3 oligoasthenospermic subjects undergoing semen analysis for couple infertility after informed consent. 10 µM of the PI3K inhibitor LY294002 were added directly to the seminal liquid and incubated for 2 hours […] at 37°C and 5% CO2. The motility of the spermatozoa was then blindly evaluated under the microscope according to WHO manual procedures.
(§2) The compound was added in a concentration of 10 µM.

[4] = test system: spermatozoa; experiment: Sperm viability by eosin test and hypo-osmotic swelling; conditions: 100 µM
Procedure: The effect of 100µM of LY294002 on the viability of the spermatozoa was also assessed (see insert of Fig. 3).

[5] = test system: spermatozoa obtained by the swim-up method; experiment: Motility of spermatozoa after incubation and swim-up selection
From the text: as §1, with “manual. […]” for “manual.”
Fig. 3 summarizes the results obtained in a similar experiment on samples from higher numbers of patients. The sperm cells were submitted to the swim-up selection method.
An improvement of percentage progressive motility after 2 hours of incubation of the sperm cells with LY294002 was clearly detectable, both on the rapid component (a) and on the rapid and slow component (a+b).
The experiments described above were performed on samples from oligoasthenospermic individuals. The effects on the stimulation of progressive motility by LY294002 are more pronounced the more serious the sperm pathology of patients is (oligospermia, asthenospermia, teratospermia). However, the effect of this compound could also be observed in normospermic subjects. […]

[6] = test system: spermatozoa; experiment: Computer aided sperm analysis (CASA) of sperm parameters; conditions: 10 µM; 12 oligoasthenospermic subjects; vs control sample; Fig. 6
Procedure: These parameters were determined by computer aided sperm analysis (CASA) in sperm samples from 12 different oligoasthenospermic subjects.

[7] = test system: spermatozoa; experiment: Total sperm cell recovery in swim-up selection; conditions: n=20
Procedure: as §1, §2
Table II summarizes the total sperm cell recovery in the swim-up, which was increased by 43% as compared to the control.

[8] = 10 µM, 2 hours of incubation, 12 individual patients, swim-up, Fig. 4

OO [H2O2]
forward motility ([1]; 200 µM H2O2 alone, oligoasthenospermic patients, control 45.4±5.0, P<0.0001 vs Control): 26.5±4.9 (n=12) %

O=c1cc(N2CCOCC2)oc2c(-c3ccccc3)cccc12 [LY294002, 2-(4-morpholinyl)-8-phenyl-4H-1-benzopyran-4-one]
LiCl induced inhibition of sperm motility [2]: reversing the effect
detrimental effects exerted by 200 µM H2O2 on sperm motility ([1]; 10 µM LY294002 added to the incubation medium): completely reversed
forward motility ([1]; 10 µM LY294002 in combination with 200 µM H2O2, P<0.002 vs H2O2): 52.6±5.5 (n=12) %
forward motility ([1]; 10 µM alone, oligoasthenospermic patients, control 45.4±5.0, P<0.0001 vs Control): 71.7±3.2 (n=12) %
rapid motility (a) of the spermatozoa in the seminal liquid ([3]; 10 µM, 2 hours, 37°C, 5% CO2, 3 oligoasthenospermic subjects, Fig. 1): increase of rapid motility
percentage of forward motility (rapid and slow component a + b) in the seminal liquid ([3]; 10 µM, 2 hours, 37°C, 5% CO2, 3 oligoasthenospermic subjects, Fig. 1B): increase
% Sperm Forward Motility, Sperm in Seminal Plasma ([3]; LY 10 µM added to seminal plasma, 20 oligoasthenospermic patients, control 35.7±5.1, p<0.001): 49.8±4.7%
sperm viability ([4]; 48 hours of incubation (not shown)): no effect on sperm viability
vitality of the cells ([4]; incubation for two hours, eosin test and hypo-osmotic swelling): did not alter the vitality
percentage progressive motility, rapid and slow component (a+b) [5, 8]: improvement
percentage progressive motility, rapid component (a) [5, 8]: improvement
forward motility of spermatozoa ([5]; 10 µM, two hours, then swim-up selection, 88 randomly selected subjects, control 53.5 ± 2.0 %): 76.3 ± 1.5%
additional enhancement of spermatozoa motility ([5]; 100 µM compared with 10 µM, swim-up, Fig. 3): about 10%
progressive motility ([5]; 100 µM, 2 hours, then swim-up selection, 7 samples, Fig. 2): significant increase
activation at 10 µM ([5]; Homo sapiens, Spermatozoa, 10 µM, 21 patients vs control 40 patients, swim-up, Fig. 3, read-out: increase in the progressive motility as compared to the control): 58%
activation at 100 µM ([5]; Homo sapiens, Spermatozoa, 100 µM, 29 patients vs control 40 patients, swim-up, Fig. 3, read-out: increase of the motility as compared to the control): 67%
EC50 ([5]; Homo sapiens, Spermatozoa, samples from normospermic individuals, 0 to 1000 µM, swim-up, Fig. 5, read-out: EC50 (effect dose of 50%) on the rapid forward motility): ~1 µM
% Sperm Forward Motility, Swim up-selected sperm ([5]; LY 10 µM added to seminal plasma, then swim-up, 20 oligoasthenospermic patients, control 54.2±4.5, p<0.001): 68.6±3.9%
average path velocity (VAP) [6]: increased in a statistically significant manner
hyperactivated sperm fraction (HA) [6]: increased in a statistically significant manner
percentage curvilinear velocity (VCL) [6]: increased in a statistically significant manner
straight-line velocity (VSL) [6]: increased in a statistically significant manner
increase of total sperm cell recovery in the swim-up vs control ([7]; 10 µM): 43%
Sperm recovery in swim up ([7]; LY 10 µM, control 13.3 ± 3.9, p<0.005): 19.0 ± 4.8 10^6

Source: patent EP1196153B1, “PROCESS FOR THE IMPROVEMENT OF SPERMATOZOA FERTILIZATION ACTIVITY” (Applied Research Systems ARS Holding N.V., priority 1999, dated 2001)
